Experimental data taken from patent EP1289507B1, “USE OF AN ALDOSTERONE ANTAGONIST FOR THE TREATMENT OR PROPHYLAXIS OF ALDOSTERONE-MEDIATED PATHOGENIC EFFECTS” (priority 2000, dated 2001).
Where “and” joins values, the source holds several entries; their conditions need not be identical. Equal values may be shown once.

What was measured:
[1] = tested on: saline-loaded adrenalectomized rats treated with aldosterone; assay: Subcutaneous vs. oral administration: urinary Na/K in saline-loaded adrenalectomized rats treated with aldosterone; format: in vivo; conditions: antagonizing aldosterone-mediated renal effects
Protocol: Urinary sodium, potassium and water excretion were measured. The results are expressed as the ratio of excreted urinary sodium to potassium (Na/K) ± SEM.

saline-drinking SHRSP = assay: Protocol 1: renal pathologic changes in saline-drinking SHRSP; format: in vivo, male SHRSP/A3N
Protocol: Animals. Studies were conducted in accordance with institutional guidelines using male SHRSP/A3N (generations F-75 to F-78), n = 37, from our local colony. These animals were bred from NIH stock, derived from the SHRSP/A3N substrain described originally by Okamoto and coworkers (Okamoto K et al. Circ. Res. 34 and 35 (suppl I):I-143-I-153.). All animals were housed in a room maintained on a 12:12-h light:dark-cycle and an ambient temperature of 22 ± 1°C in the Animal Care Facility at New York Medical College. Rats were weaned at 4 weeks of age and allowed free access to Purina Lab Chow 5001 (Ralston Purina, St. Louis, MO) and tap water until the initiation of experimental protocols.
Eighteen SHRSP were given 1% NaCl to drink and were fed Stroke-Prone Rodent Diet (#39-288, Zeigler Brothers, Inc., Gardners, PA) starting at 8.1 weeks of age. […] Vehicle-control littermates received 2 ml/kg/d of the 0.5% methylcellulose solution. Animals were housed individually in metabolic cages so that measurements of 24-h urine output and protein excretion could be made. Animals were examined each day for neurologic signs of stroke. Systolic arterial pressure and heart rate were measured each week in awake rats. The experiment was terminated after 5 weeks of treatment when the animals were 13.1 weeks of age. Trunk blood was collected into chilled EDTA tubes following rapid decapitation of the animals between 10:00 am and 12:00 pm. Blood was stored at - 20°C for later measurement of plasma aldosterone levels. The kidneys were rapidly removed, weighed, and then preserved in fixative for later histologic examination.
Assays and Analyses. Systolic blood pressure and heart rate of awake animals were measured by tail-cuff plethysmography using a Natsume KN-210 manometer and tachometer (Peninsula Laboratories Inc., Belmont, CA). Rats were warmed at 37°C for 10 min and allowed to rest quietly in a Lucite chamber before measurement of blood pressure. Measurements of urine volume were made gravimetrically. Urinary protein concentration was determined by the sulfosalicylic acid turbidity method. Plasma aldosterone was measured by radioimmunoassay using ^125I-aldosterone as a tracer (Coat-a Count Aldosterone, Diagnostic Products Co., Los Angeles, CA).
Histology. Kidneys were preserved in 10% phosphate-buffered formalin. Coronal sections (2-3 µm) were stained with hematoxylin and eosin and examined by light microscopy in a blinded fashion as previously described (Stier CT et al. J Pharmacol Exp Ther (1992) 260:1410-1415). Glomerular damage was categorized as ischemic or thrombotic. Ischemic lesions were defined as retraction of glomerular capillary tufts with or without appreciable mesangiolysis. Glomerular thrombotic lesions were defined as any one of a combination of the following: segmental to global fibrinoid necrosis, focal thrombosis of glomerular capillaries, swelling and proliferation of intracapillary (endothelial and mesangial) and/or extracapillary cells (crescents), and expansion of reticulated mesangial matrix with or without significant hypercellularity. […] Vascular thrombotic lesions were defined as any one or a combination of the following: mural fibrinoid necrosis, extravasation and fragmentation of red blood cells, and luminal and/or mural thrombosis. Proliferative arteriopathy was characterized by proliferation of markedly swollen myointimal cells with swollen round to ovoid vesicular nuclei surrounded by mucinous extracellular matrix ("onion skinning") often resulting in nodular thickening. Vascular damage was expressed as the number of arteries and arterioles with lesions per 100 glomeruli. The presence of casts and tubular (ischemic) retraction and simplification was assessed semiquantitatively.
Statistical Analysis. Significant effects with respect to treatment and time were determined by two-way analysis of variance. Data with only one grouping variable were analyzed statistically by Student's unpaired t tests. […]

[2] = tested on: patients with hypertension; assay: Clinical efficacy in hypertension: randomized double-blind study, cuff and ambulatory blood pressure; format: in vivo
Protocol: A multicenter, randomized, double-blind, parallel group study was conducted in patients with hypertension. […] The study consisted of a two-week pretreatment period for completion of screening procedures and discontinuation of any current antihypertensive medication(s). The screening period was followed by a four-week single-blind placebo lead-in treatment period.
The primary efficacy measure was the change from baseline in cuff diastolic blood pressure measured at trough as compared to placebo. Secondary efficacy measures included changes in cuff assessed trough systolic blood pressure and changes in average 24-hour diastolic and systolic blood pressure assessed by ambulatory blood pressure monitoring. Safety was assessed by conducting routine clinical lab tests, physical exams, ECGs, and monitoring for adverse events.

[3] = 96 hours postdose; other tissues below the limit of detection; 20 mg/kg
[4] = Form H content of dried solids by X-ray powder diffraction (XPRD); format: physicochemical
[5] = oral eplerenone 100 mg/kg/d, preterminal

COC(=O)[C@@H]1CC2=CC(=O)CC[C@]2(C)[C@@]23O[C@@H]2C[C@@]2(C)[C@@H](CC[C@@]24CCC(=O)O4)[C@H]13 [Eplerenone, Pregn-4-ene-7,21-dicarboxylic acid, 9,11-epoxy-17-hydroxy-3-oxo-, γ-lactone, methyl ester, (7α, 11α, 17β)-]
efficacy of subcutaneous injection vs oral administration [1]: better efficacy than oral administration
Glomerular damage, Ischemic (saline-drinking SHRSP; 100 mg/kg/d by gavage, 5 weeks): 1.0 ± 1.0 lesions/100 glomeruli
Glomerular damage, Thrombotic (saline-drinking SHRSP; 100 mg/kg/d by gavage, 5 weeks): 0.1 ± 0.1 lesions/100 glomeruli
Glomerular damage, Total (saline-drinking SHRSP; 100 mg/kg/d by gavage, 5 weeks): 1.0 ± 1.0 lesions/100 glomeruli
Renal angiopathy, Proliferative (saline-drinking SHRSP; 100 mg/kg/d by gavage, 5 weeks): 0.1 ± 0.1 lesions/100 glomeruli
Renal angiopathy, Thrombotic (saline-drinking SHRSP; 100 mg/kg/d by gavage, 5 weeks): 1.0 ± 1.0 lesions/100 glomeruli
Renal angiopathy, Total (saline-drinking SHRSP; 100 mg/kg/d by gavage, 5 weeks): 1.0 ± 1.0 lesions/100 glomeruli
Protein casts, % of tubules (saline-drinking SHRSP; 100 mg/kg/d, 5 weeks): 0.11 ± 0.04%
tubules displaying ischemic retraction and simplification (saline-drinking SHRSP; 100 mg/kg/d, 5 weeks): 0.5 ± 0.2%
evidence of stroke (saline-drinking SHRSP; n = 9, P < .01 vs vehicle): none
renal lesions (saline-drinking SHRSP; oral eplerenone 100 mg/kg/d for 5 to 6 weeks): 1 ± 1%
proteinuria (urinary protein excretion) (saline-drinking SHRSP; [5]): 16 ± 2 mg/day
severe hypertension (systolic blood pressure) (saline-drinking SHRSP; [5]): 219 ± 6 mm Hg
ABPM DBP, adjusted mean change from baseline to final visit ([2]; 50 mg/day (25 BID)): -4.1 mm Hg
ABPM SBP, adjusted mean change from baseline to final visit ([2]; 50 mg/day (25 BID)): -7.5 mm Hg
Cuff SBP, adjusted mean change from baseline to final visit ([2]; 50 mg/day (25 BID)): -8.1 mm Hg
Cuff DBP, adjusted mean change from baseline to final visit ([2]; 50 mg/day (25 BID), eight weeks): -4.4 mm Hg
ABPM DBP, adjusted mean change from baseline to final visit ([2]; 50 mg/day (50 QD)): -5.1 mm Hg
ABPM SBP, adjusted mean change from baseline to final visit ([2]; 50 mg/day (50 QD)): -6.2 mm Hg
Cuff DBP, adjusted mean change from baseline to final visit ([2]; 50 mg/day (50 QD)): -4.5 mm Hg
Cuff SBP, adjusted mean change from baseline to final visit ([2]; 50 mg/day (50 QD)): -4.4 mm Hg
ABPM DBP, adjusted mean change from baseline to final visit ([2]; 100 mg/day (50 BID)): -6.6 mm Hg
ABPM SBP, adjusted mean change from baseline to final visit ([2]; 100 mg/day (50 BID)): -11.6 mm Hg
Cuff DBP, adjusted mean change from baseline to final visit ([2]; 100 mg/day (50 BID)): -7.8 mm Hg
Cuff SBP, adjusted mean change from baseline to final visit ([2]; 100 mg/day (50 BID)): -11.7 mm Hg
ABPM DBP, adjusted mean change from baseline to final visit ([2]; 100 mg/day (100 QD)): -5.6 mm Hg
ABPM SBP, adjusted mean change from baseline to final visit ([2]; 100 mg/day (100 QD)): -9.6 mm Hg
Cuff DBP, adjusted mean change from baseline to final visit ([2]; 100 mg/day (100 QD)): -4.4 mm Hg
Cuff SBP, adjusted mean change from baseline to final visit ([2]; 100 mg/day (100 QD)): -7.9 mm Hg
ABPM DBP, adjusted mean change from baseline to final visit ([2]; 400 mg/day (200 BID)): -9.0 mm Hg
ABPM SBP, adjusted mean change from baseline to final visit ([2]; 400 mg/day (200 BID)): -16.1 mm Hg
Cuff DBP, adjusted mean change from baseline to final visit ([2]; 400 mg/day (200 BID)): -8.9 mm Hg
Cuff SBP, adjusted mean change from baseline to final visit ([2]; 400 mg/day (200 BID)): -14.8 mm Hg
ABPM DBP, adjusted mean change from baseline to final visit ([2]; 400 mg/day (400 QD)): -7.7 mm Hg
ABPM SBP, adjusted mean change from baseline to final visit ([2]; 400 mg/day (400 QD)): -13.7 mm Hg
Cuff DBP, adjusted mean change from baseline to final visit ([2]; 400 mg/day (400 QD)): -8.7 mm Hg
Cuff SBP, adjusted mean change from baseline to final visit ([2]; 400 mg/day (400 QD)): -15.0 mm Hg
Peak to trough ratios ([2]; QD and BID regimens, all doses): 1.04 - 1.10
gynecomastia ([2]; eight-week double-blind treatment): no reports of gynecomastia
tolerability ([2]; incidence of adverse events similar to placebo): well tolerated
concentrations of radioactivity in cecum, kidneys, large intestine and liver [3]: less than 0.024 µg equivalents/g
Weight Percent Form H (XPRD) ([4]; cooling rate (0) 1.5°C/min, cooling endpoint (0) 25°C, impurity level (0) 100.8% purity starting material (footnote as printed), replicate runs): <3% Weight Percent and 5 Weight Percent
Weight Percent Form H (XPRD) ([4]; cooling rate (+) 3°C/min, cooling endpoint (-) 5°C, impurity level (+) 89.3% purity starting material): 9 Weight Percent
